Results as given in ChEMBL document CHEMBL1201862, “PubChem BioAssay data set” (2004).
Activity calls are given as the source filed them. Cut-off read from the data, not from the text of the source: actives have a measured IC50 and inactives only a lower limit.

Target: Envelope glycoprotein gp160 (Human immunodeficiency virus 1, UniProt Q6QLK5)
Experiment: cell-free HIV fusion peptide-binding blockers – biochemical, uHTS, fluorescence dequenching, […] (AID 1986)

Sequence of Envelope glycoprotein gp160 (Q6QLK5 whole entry, the tested form may be a part): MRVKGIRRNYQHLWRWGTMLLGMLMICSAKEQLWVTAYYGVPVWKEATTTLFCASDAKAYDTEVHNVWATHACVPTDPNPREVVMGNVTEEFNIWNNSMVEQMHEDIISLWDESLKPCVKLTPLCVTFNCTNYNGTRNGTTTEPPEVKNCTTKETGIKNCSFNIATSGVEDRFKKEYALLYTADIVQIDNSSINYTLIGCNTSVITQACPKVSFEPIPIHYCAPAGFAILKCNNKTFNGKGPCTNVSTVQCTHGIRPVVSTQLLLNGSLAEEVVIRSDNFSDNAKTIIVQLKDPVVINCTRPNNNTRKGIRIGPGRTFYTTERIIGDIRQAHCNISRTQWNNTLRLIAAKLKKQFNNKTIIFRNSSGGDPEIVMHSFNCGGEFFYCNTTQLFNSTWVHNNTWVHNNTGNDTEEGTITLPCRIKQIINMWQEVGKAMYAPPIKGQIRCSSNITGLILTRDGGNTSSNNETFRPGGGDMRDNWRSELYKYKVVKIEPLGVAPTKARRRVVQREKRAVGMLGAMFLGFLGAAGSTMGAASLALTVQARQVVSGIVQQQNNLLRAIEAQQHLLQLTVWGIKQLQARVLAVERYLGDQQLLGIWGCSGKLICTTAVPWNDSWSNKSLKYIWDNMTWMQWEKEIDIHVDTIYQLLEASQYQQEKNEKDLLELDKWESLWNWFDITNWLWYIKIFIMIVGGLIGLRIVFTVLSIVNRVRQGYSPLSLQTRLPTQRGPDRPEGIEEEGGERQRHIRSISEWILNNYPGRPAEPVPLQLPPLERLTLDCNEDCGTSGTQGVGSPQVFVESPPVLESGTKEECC

In the case of `O=C(Nc1ccc(C(=O)O)cc1)/C(=C\C=C\c1ccccc1)NC(=O)c1cccc(Br)c1`, the IC50 is reported as 22.6 µM (active).
